Article PMC12598866, “A Comparative Study of Virucidal and Virustatic Multivalent Entry Inhibitors” (The Journal of Physical Chemistry. B, 2025)
Like-named read-outs stand apart in the source and are kept apart here.

Tests used:
HSV-2 [1] = test: HSV-2 virucidal assay; format: cell-based, herpes simplex virus type 2
HSV-2 [2] = test: Growth of viruses in the presence of compounds (posttreatment), HSV-2; format: cell-based, herpes simplex virus type 2; conditions: for IC50: Human alphaherpesvirus 2, Vero, posttreatment condition, Vero cells
Flu B = test: Influenza inhibition assay (ICC on MDCK cells); format: cell-based; conditions: dose–response
HSV-2 [3] = test: HSV-2 inhibition assay (plaque reduction on Vero cells, pretreatment); format: cell-based, herpes simplex virus type 2; conditions: Human alphaherpesvirus 2, Vero, pretreatment condition
HSV-1 = HSV-1 inhibition assay (plaque reduction on Vero cells); format: cell-based, herpes simplex virus type 1; conditions: Human alphaherpesvirus 1, dose–response
Method: The inhibitory effect of compounds on HSV-1 was evaluated by plaque reduction assay. Vero cells were plated 24 h before the experiment in 24-well plates at a density of 10^5 cells/well. Serial dilutions of compounds in DMEM medium (2% FBS, 1% P/S) were prepared, followed by the addition of aliquots of HSV-1 such that the final titer of the virus is […] (with MOI = 0.0005). Compounds/virus mixtures were incubated at 37 °C for 1 h and added to the cells (250 μL/well). Followed by incubation at 37 °C for 1 h, the viral inoculum was removed. The cells were overlaid with DMEM medium containing 1.2% methylcellulose, 2% FBS, and 1% P/S. After 3 days of incubation at 37 °C, 5% CO2, the cells were fixed and stained with 0.1% crystal violet in 20% ethanol, and plaques were counted. Each group of experiments in the inhibition assay was performed in triplicate. The concentration producing a 50% reduction in plaque formation was determined using the Prism 10 software (GraphPad Software, USA) by comparing compound-treated and untreated cells. Infectivity was calculated as the number of plaques in compound-treated cells/number of plaques in untreated cells × 100%.

BSA = molecular target: T1, BSA (Bos taurus, UniProt P02769); test: Isothermal titration calorimetry with BSA; format: binding, bovine; conditions: ITC
T1 construct: purchased Sigma-Aldrich

H1N1N09 = test: Influenza inhibition assay (ICC on MDCK cells); format: cell-based, Influenza A/Netherlands/602/2009 (H1N1); conditions: Influenza A virus, dose–response
[4] = molecular target: glycoprotein D (gD) of HSV; test: Isothermal titration calorimetry with glycoprotein D; format: binding; conditions: ITC, 25°C
Method: Isothermal titration calorimetry (ITC) experiments were conducted using ITC200 instruments (GE Healthcare, USA) equipped with a 200 μL sample cell and a 40 μL syringe. Thirteen injections were applied. The first data point was excluded. BSA protein and viral protein concentrations in the cell were approximately 50 μM and 1 mg/mL, respectively, and ligand concentrations in the syringe were roughly 2 mM. They were centrifuged at 2000g for 2 min to remove bubbles. The titration was performed at 25 or 37 °C, with data analyzed using MicroCal PEAQ ITC software. Baseline correction was applied, and Nitpic/Sedphat was used for automated integration to ensure precise binding parameter determination.

[5] = Cytotoxicity assay for MDCK (MTT); format: cell-based; conditions: dog, MDCK cells
Method: MTT assay was used to evaluate the cytotoxicity on MDCK cells. 10^4 cells per well were seeded in a 96-well plate 1 day before the assay. A dose range of each drug (from 4.11 μM to 1000 μM) was added to the cells in serum-free medium for MDCK cells. The antivirals were incubated on the cells for 24 h at 37 °C. After incubation, the cells were washed, and MTT reagent (Promega) was added to the cells for 4 h at 37 °C according to the manufacturer’s instructions. The cells were then washed, and 50 μL of DMSO was added to free the reagent. Subsequently, the absorbance was read at 579 nm. Percentages of viability were calculated by comparing the absorbance in treated wells and untreated conditions.

H3N2 [6] = test: Influenza inhibition assay (ICC on MDCK cells, pretreatment); format: cell-based; conditions: Influenza A virus
H1N1 clinical = test: Influenza inhibition assay (ICC on MDCK cells); format: cell-based; conditions: Influenza A virus, dose–response
[7] = Partition coefficient octanol/water (UV-vis); format: physicochemical
Method: UV–vis spectroscopy was employed first to determine the correct dilution of all compounds. The seven compounds in this study were B3C11SO4, B3C11SO3, B3C6SO3, B3C6SO4, C4C11SO4, C4C11SO3, and C4C3SO3. The protocol is the same for all the compounds: in the beginning, all compounds were dissolved in water at a concentration of 1 mg/mL. The solution was put into a quartz cuvette and then into the UV–vis spectrometer, where the absorbance from wavelengths 600 to 190 nm was investigated. All of the samples presented a peak in absorbance around 200 nm. The samples were diluted further until the absorbance peak reached values near 0.90.
A biphasic solution composed of 1.5 mL of a water solution of antiviral +1.5 mL of octanol was thoroughly mixed for 60 min. After the mixing, the two phases were separated by centrifugation for 1 min using a benchtop centrifuge at 5000 rpm. The water phase saturated in octanol and the octanol phase saturated with water were extracted and characterized by UV–vis spectrometry.
The partition coefficient (log P) was then calculated using formula : logP=log(Absorbanceofoctanolphase/Absorbanceofwaterphase) 1

H3N2 [8] = test: microbe, parasite or virus in culture; format: cell-based; conditions: Influenza A virus, posttreatment condition, MDCK cells
[9] = CMC assay (conductivity method); format: physicochemical; conditions: in water
Method: The CMC of antiviral compounds was measured by the conductivity method. Antiviral compounds were diluted into water at different concentrations, and the conductivity (μS/cm) was measured at each concentration with a conductivity meter (Mettler Toledo, Switzerland). The CMC was identified as the point on the conductivity-concentration plot where the slope changed.

[10] = tested on: NO production in RAW 264.7 cells; test: NO production in LPS-stimulated macrophages; format: cell-based; conditions: Mus musculus, RAW264.7; RAW 264.7 pretreated 2 h with MEIs, then LPS 1 μg/mL for 24 h
Method: To evaluate the anti-inflammatory potential of MEIs, we investigated their ability to reduce the level of NO production in macrophages. RAW 264.7 cells were pretreated with the different concentrations of MEIs for 2 h, followed by stimulation with lipopolysaccharide (LPS) (1 μg/mL) for 24 h to induce inflammation. […] However, cotreatment with MEIs led to a reduction in NO levels, confirming their anti-inflammatory effect.

[11] = H2O, 25 °C (Table 5), read-out: K d (BSA)
[12] = dose–response, read-out: IC50 H3N2
[13] = pretreatment condition, read-out: pretreatment IC50, H3N2

T1 sequence (P02769 25-607): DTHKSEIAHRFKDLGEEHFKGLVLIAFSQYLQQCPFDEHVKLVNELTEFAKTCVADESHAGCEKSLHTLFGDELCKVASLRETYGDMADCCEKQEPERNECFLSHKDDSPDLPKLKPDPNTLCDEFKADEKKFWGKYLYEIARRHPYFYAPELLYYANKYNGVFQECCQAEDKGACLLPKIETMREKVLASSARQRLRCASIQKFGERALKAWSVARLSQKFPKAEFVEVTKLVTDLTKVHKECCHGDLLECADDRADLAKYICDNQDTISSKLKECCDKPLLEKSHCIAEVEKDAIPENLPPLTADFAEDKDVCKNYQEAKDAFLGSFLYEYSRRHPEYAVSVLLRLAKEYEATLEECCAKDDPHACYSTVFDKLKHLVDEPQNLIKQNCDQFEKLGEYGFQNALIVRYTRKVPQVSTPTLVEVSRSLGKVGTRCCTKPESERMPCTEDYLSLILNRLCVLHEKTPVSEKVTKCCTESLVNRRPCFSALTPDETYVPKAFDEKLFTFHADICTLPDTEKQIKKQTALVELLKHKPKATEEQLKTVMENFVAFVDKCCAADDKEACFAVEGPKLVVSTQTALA

Row | SMILES | IC50 (HSV-2 [2]) [µM] | IC50 (Flu B) [µM] | IC50 (HSV-2 [3]) [µM] | IC50 (HSV-1) [µM] | ΔG (BSA) (BSA; H2O, 25 °C (Table 5)) | ΔH (BSA) (BSA; H2O, 25 °C (Table 5)) | –ΔTS (BSA) (BSA; H2O, 25 °C (Table 5)) | Kd (BSA; [11]) [µM] | IC50 (H1N1N09) [µM] | Kd [4] [µM] | CC50 at 24 h [5] [µM] | IC50 (H3N2 [6]; [12]) [µM] | IC50 (H3N2 [6]; [13]) [µM] | IC50 (H1N1 clinical) [µM] | logP [7] | IC50 (H3N2 [8]) [µM] | CMC [9] [µM] | further results
1 | O=S(=O)(O)CCCCCCCCCCCSCc1cc(CSCCCCCCCCCCCS(=O)(=O)O)cc(CSCCCCCCCCCCCS(=O)(=O)O)c1 [B3C11SO3] | 10.3 ± 1.17 | 324 ± 103 | 88.5 ± 7.6 | 139 ± 4.6 | –7.15 kcal/mol | –9.08 kcal/mol | 1.93 kcal/mol | 5.82 | 35.2 ± 4.7 | 23.2 | > 415 | 49.5 ± 8.7 | 49.5 ± 8.7 | 4.2 ± 0.36 | -2.43 | 24.8 ± 1.2 | 497 ± 20.9 | Virucidal/Virustatic, HSV-2 (HSV-2 [1]; concentration 300 uM): Virustatic; Virucidal/Virustatic, HSV-2 (HSV-2 [1]; concentration 500 uM): Virustatic; inhibition mechanism against HSV-2 (in words) (HSV-2 [1]; virucidal tests): virustatic; Virucidal activity, HSV-2 (HSV-2 [1]; virucidal titration at 90–99% viral inhibition concentration, Vero cells): S; fold reduction in IC50, posttreatment vs pretreatment (HSV-2 [2]; HSV-2): approximately 9 fold; -∆TS (BSA) (BSA; H2O, 25 °C (Table S3)): 1.93 kcal/mol; N (BSA) (BSA; H2O, 25 °C (Table S3)): 1.1; ∆G (BSA) (BSA; H2O, 25 °C (Table S3)): -7.15 kcal/mol; ∆H (BSA) (BSA; H2O, 25 °C (Table S3)): -9.08 kcal/mol; -∆TS (BSA) (BSA; H2O, 37 °C (Table S3)): 0.272 kcal/mol; Kd (BSA; H2O, 37 °C (Table S3)): 4.97 µM; N (BSA) (BSA; H2O, 37 °C (Table S3)): 0.838; ∆G (BSA) (BSA; H2O, 37 °C (Table S3)): -7.53 kcal/mol; ∆H (BSA) (BSA; H2O, 37 °C (Table S3)): -9.78 kcal/mol
2 | O=S(=O)(O)OCCCCCCCCCCCSCc1cc2c(cc1CSCCCCCCCCCCCOS(=O)(=O)O)OCCOCCOc1cc(CSCCCCCCCCCCCOS(=O)(=O)O)c(CSCCCCCCCCCCCOS(=O)(=O)O)cc1OCCOCCO2 [C4C11SO4] | 4.8 ± 0.7 | 47.9 ± 9.38 | 18.5 ± 5.2 | 22.5 ± 4.2 | –6.07 kcal/mol | –2.73 kcal/mol | –3.34 kcal/mol | 35.7 | 80.9 ± 13.7 | 141 | > 194 | 40.9 ± 1.19 | 6.4 ± 1.03 | > 202 | -1.76 | 18.3 ± 0.75 | 1003 ± 24.6 | N (binding sites, BSA) (BSA; H2O, 25 °C (Table 5)): 2.5; -∆TS (BSA) (BSA; PBS, 25 °C (Table S3)): -3.6 kcal/mol; Kd (BSA; PBS, 25 °C (Table S3)): 161 µM; N (BSA) (BSA; PBS, 25 °C (Table S3)): 10; ∆G (BSA) (BSA; PBS, 25 °C (Table S3)): -5.18 kcal/mol; ∆H (BSA) (BSA; PBS, 25 °C (Table S3)): -1.58 kcal/mol; -∆TS (BSA) (BSA; PBS, 37 °C (Table S3)): -4.71 kcal/mol; Kd (BSA; PBS, 37 °C (Table S3)): 8.47 µM; N (BSA) (BSA; PBS, 37 °C (Table S3)): 7.6; ∆G (BSA) (BSA; PBS, 37 °C (Table S3)): -7.2 kcal/mol; ∆H (BSA) (BSA; PBS, 37 °C (Table S3)): -2.49 kcal/mol; IC50 [10]: 66.1 ± 1.23 µM
